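Interpolation was linear, between the two tested concentrations surrounding the appropriate level; five concentrations were tested over 48 hours in 96-well plates. GI50 = concentration required for 50% inhibition of growth. The concentration for full growth arrest is given as TGI.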
What was measured:
Experiment in all cases: DTP human tumour cell line panel, 48 h
SNB-75 CNS = tested on: SNB-75 CNS
HCT-15 colon = tested on: HCT-15 colon
SF-539 CNS = tested on: SF-539 CNS
OVCAR-3 ovarian = tested on: OVCAR-3 ovarian
SNB-19 CNS = tested on: SNB-19 CNS
SK-MEL-28 melanoma = tested on: SK-MEL-28 melanoma
M14 melanoma = tested on: M14 melanoma
A498 renal = tested on: A498 renal
PC-3 prostate = tested on: PC-3 prostate
SK-MEL-5 melanoma = tested on: SK-MEL-5 melanoma
TK-10 renal = tested on: TK-10 renal
SF-295 CNS = tested on: SF-295 CNS
HCC-2998 colon = tested on: HCC-2998 colon
MCF7 breast = tested on: MCF7 breast
UO-31 renal = tested on: UO-31 renal
OVCAR-4 ovarian = tested on: OVCAR-4 ovarian
DU-145 prostate = tested on: DU-145 prostate
LOX IMVI melanoma = tested on: LOX IMVI melanoma
SW-620 colon = tested on: SW-620 colon
NCI/ADR-RES ovarian = tested on: NCI/ADR-RES ovarian
RPMI-8226 leukemia = tested on: RPMI-8226 leukemia
KM12 colon = tested on: KM12 colon
NCI-H522 lung = tested on: NCI-H522 lung
SN12C renal = tested on: SN12C renal
MOLT-4 leukemia = tested on: MOLT-4 leukemia
UACC-62 melanoma = tested on: UACC-62 melanoma
HCT-116 colon = tested on: HCT-116 colon
HT29 colon = tested on: HT29 colon
BT-549 breast = tested on: BT-549 breast
UACC-257 melanoma = tested on: UACC-257 melanoma
CCRF-CEM leukemia = tested on: CCRF-CEM leukemia
U251 CNS = tested on: U251 CNS
OVCAR-5 ovarian = tested on: OVCAR-5 ovarian
OVCAR-8 ovarian = tested on: OVCAR-8 ovarian
SK-OV-3 ovarian = tested on: SK-OV-3 ovarian
HOP-92 NSCLC = tested on: HOP-92 NSCLC
ACHN renal = tested on: ACHN renal
786-0 renal = tested on: 786-0 renal
SF-268 CNS = tested on: SF-268 CNS
RXF 393 renal = tested on: RXF 393 renal
NCI-H226 lung = tested on: NCI-H226 lung
IGROV1 ovarian = tested on: IGROV1 ovarian
NCI-H23 lung = tested on: NCI-H23 lung
MALME-3M melanoma = tested on: MALME-3M melanoma
CAKI-1 renal = tested on: CAKI-1 renal
A549 NSCLC = tested on: A549 NSCLC
K-562 leukemia = tested on: K-562 leukemia
HOP-62 NSCLC = tested on: HOP-62 NSCLC
NCI-H460 lung = tested on: NCI-H460 lung
SR leukemia = tested on: SR leukemia
COLO 205 colon = tested on: COLO 205 colon
MDA-MB-435 = tested on: MDA-MB-435
SK-MEL-2 melanoma = tested on: SK-MEL-2 melanoma
T-47D breast = tested on: T-47D breast
MDA-MB-231 breast = tested on: MDA-MB-231 breast
HL-60(TB) leukemia = tested on: HL-60(TB) leukemia
HS 578T breast = tested on: HS 578T breast

How did the GI50 (SNB-75 CNS) turn out when `NC(N)=NC(N)=NCCCc1ccco1` was run?
The GI50 was 83.3 µM.

What about the TGI (SNB-75 CNS) of the same molecule?
Its TGI is 245 µM.

What about the GI50 (HCT-15 colon) of the same molecule?
The GI50 was greater than 500 µM.

What about the TGI (HCT-15 colon) of the same molecule?
The TGI was greater than 500 µM.

And the GI50 (SF-539 CNS)?
Its GI50 is 108 µM.

And the TGI (SF-539 CNS)?
Its TGI is 268 µM.

And the GI50 (OVCAR-3 ovarian)?
The GI50 was 114 µM.

What about the TGI (OVCAR-3 ovarian) of the same molecule?
Its TGI is 329 µM.

And the GI50 (SNB-19 CNS)?
Its GI50 is greater than 500 µM.

What about the TGI (SNB-19 CNS) of the same molecule?
Its TGI is greater than 500 µM.

What about the GI50 (SK-MEL-28 melanoma) of the same molecule?
Its GI50 is 23.1 µM.

What about the TGI (SK-MEL-28 melanoma) of the same molecule?
The TGI was 91.3 µM.

What about the GI50 (M14 melanoma) of the same molecule?
The GI50 was 53.6 µM.

What about the TGI (M14 melanoma) of the same molecule?
Its TGI is 123 µM.

What about the GI50 (A498 renal) of the same molecule?
The GI50 was greater than 500 µM.

And the TGI (A498 renal)?
The TGI was greater than 500 µM.

And the GI50 (PC-3 prostate)?
Its GI50 is greater than 500 µM.

What about the TGI (PC-3 prostate) of the same molecule?
Its TGI is greater than 500 µM.

What about the GI50 (SK-MEL-5 melanoma) of the same molecule?
The GI50 was greater than 500 µM.

What about the TGI (SK-MEL-5 melanoma) of the same molecule?
Its TGI is greater than 500 µM.

And the GI50 (TK-10 renal)?
The GI50 was 22.7 µM.

And the TGI (TK-10 renal)?
The TGI was 119 µM.

What about the GI50 (SF-295 CNS) of the same molecule?
Its GI50 is 163 µM.

What about the TGI (SF-295 CNS) of the same molecule?
The TGI was greater than 500 µM.

And the GI50 (HCC-2998 colon)?
Its GI50 is greater than 500 µM.

What about the TGI (HCC-2998 colon) of the same molecule?
The TGI was greater than 500 µM.

What about the GI50 (MCF7 breast) of the same molecule?
Its GI50 is 334 µM.

What about the TGI (MCF7 breast) of the same molecule?
The TGI was greater than 500 µM.

What about the GI50 (UO-31 renal) of the same molecule?
Its GI50 is 65.2 µM.

And the TGI (UO-31 renal)?
The TGI was 195 µM.

What about the GI50 (OVCAR-4 ovarian) of the same molecule?
The GI50 was 96.8 µM.

What about the TGI (OVCAR-4 ovarian) of the same molecule?
The TGI was 268 µM.

What about the GI50 (DU-145 prostate) of the same molecule?
The GI50 was 140 µM.

What about the TGI (DU-145 prostate) of the same molecule?
Its TGI is greater than 500 µM.

What about the GI50 (LOX IMVI melanoma) of the same molecule?
The GI50 was 52.2 µM.

And the TGI (LOX IMVI melanoma)?
The TGI was 121 µM.

And the GI50 (SW-620 colon)?
Its GI50 is 18.2 µM.

And the TGI (SW-620 colon)?
The TGI was 125 µM.

And the GI50 (NCI/ADR-RES ovarian)?
The GI50 was 66.4 µM.

What about the TGI (NCI/ADR-RES ovarian) of the same molecule?
Its TGI is 247 µM.

What about the GI50 (RPMI-8226 leukemia) of the same molecule?
The GI50 was 23.7 µM.

What about the TGI (RPMI-8226 leukemia) of the same molecule?
The TGI was 101 µM.

What about the GI50 (KM12 colon) of the same molecule?
Its GI50 is 109 µM.

And the TGI (KM12 colon)?
Its TGI is greater than 500 µM.

And the GI50 (NCI-H522 lung)?
Its GI50 is greater than 500 µM.

And the TGI (NCI-H522 lung)?
Its TGI is greater than 500 µM.

What about the GI50 (SN12C renal) of the same molecule?
Its GI50 is 87.2 µM.

And the TGI (SN12C renal)?
The TGI was 253 µM.

And the GI50 (MOLT-4 leukemia)?
Its GI50 is 28.3 µM.

What about the TGI (MOLT-4 leukemia) of the same molecule?
Its TGI is 176 µM.

What about the GI50 (UACC-62 melanoma) of the same molecule?
The GI50 was 37.8 µM.

What about the TGI (UACC-62 melanoma) of the same molecule?
The TGI was 111 µM.

What about the GI50 (HCT-116 colon) of the same molecule?
The GI50 was 90.2 µM.

What about the TGI (HCT-116 colon) of the same molecule?
The TGI was 335 µM.

What about the GI50 (HT29 colon) of the same molecule?
Its GI50 is greater than 500 µM.

And the TGI (HT29 colon)?
Its TGI is greater than 500 µM.

And the GI50 (BT-549 breast)?
The GI50 was 39.6 µM.

And the TGI (BT-549 breast)?
Its TGI is 152 µM.

What about the GI50 (UACC-257 melanoma) of the same molecule?
The GI50 was 19.2 µM.

What about the TGI (UACC-257 melanoma) of the same molecule?
The TGI was 101 µM.

What about the GI50 (CCRF-CEM leukemia) of the same molecule?
Its GI50 is 21.8 µM.

And the TGI (CCRF-CEM leukemia)?
The TGI was 121 µM.

And the GI50 (U251 CNS)?
Its GI50 is 150 µM.

What about the TGI (U251 CNS) of the same molecule?
Its TGI is greater than 500 µM.

And the GI50 (OVCAR-5 ovarian)?
The GI50 was 148 µM.

What about the TGI (OVCAR-5 ovarian) of the same molecule?
Its TGI is greater than 500 µM.

And the GI50 (OVCAR-8 ovarian)?
The GI50 was 31.8 µM.

And the TGI (OVCAR-8 ovarian)?
Its TGI is 190 µM.

What about the GI50 (SK-OV-3 ovarian) of the same molecule?
The GI50 was 142 µM.

And the TGI (SK-OV-3 ovarian)?
The TGI was greater than 500 µM.

And the GI50 (HOP-92 NSCLC)?
The GI50 was 57.5 µM.

And the TGI (HOP-92 NSCLC)?
The TGI was 158 µM.

And the GI50 (ACHN renal)?
Its GI50 is greater than 500 µM.

And the TGI (ACHN renal)?
Its TGI is greater than 500 µM.

What about the GI50 (786-0 renal) of the same molecule?
The GI50 was 83.5 µM.

And the TGI (786-0 renal)?
The TGI was 265 µM.

What about the GI50 (SF-268 CNS) of the same molecule?
Its GI50 is 61.5 µM.

And the TGI (SF-268 CNS)?
Its TGI is 156 µM.

What about the GI50 (RXF 393 renal) of the same molecule?
The GI50 was 77.5 µM.

What about the TGI (RXF 393 renal) of the same molecule?
The TGI was 237 µM.

What about the GI50 (NCI-H226 lung) of the same molecule?
Its GI50 is 98.3 µM.

What about the TGI (NCI-H226 lung) of the same molecule?
Its TGI is 351 µM.

What about the GI50 (IGROV1 ovarian) of the same molecule?
Its GI50 is greater than 500 µM.

And the TGI (IGROV1 ovarian)?
The TGI was greater than 500 µM.

What about the GI50 (NCI-H23 lung) of the same molecule?
The GI50 was 463 µM.

And the TGI (NCI-H23 lung)?
The TGI was greater than 500 µM.

And the GI50 (MALME-3M melanoma)?
The GI50 was 18.7 µM.

What about the TGI (MALME-3M melanoma) of the same molecule?
Its TGI is 66.2 µM.

What about the GI50 (CAKI-1 renal) of the same molecule?
Its GI50 is 92.4 µM.

And the TGI (CAKI-1 renal)?
Its TGI is 247 µM.

And the GI50 (A549 NSCLC)?
Its GI50 is greater than 500 µM.

And the TGI (A549 NSCLC)?
Its TGI is greater than 500 µM.

What about the GI50 (K-562 leukemia) of the same molecule?
The GI50 was 24.5 µM.

What about the TGI (K-562 leukemia) of the same molecule?
The TGI was 238 µM.

And the GI50 (HOP-62 NSCLC)?
Its GI50 is 82.7 µM.

And the TGI (HOP-62 NSCLC)?
The TGI was 196 µM.

What about the GI50 (NCI-H460 lung) of the same molecule?
The GI50 was 143 µM.

And the TGI (NCI-H460 lung)?
The TGI was greater than 500 µM.

What about the GI50 (SR leukemia) of the same molecule?
Its GI50 is 19.6 µM.

What about the TGI (SR leukemia) of the same molecule?
The TGI was 89.8 µM.

And the GI50 (COLO 205 colon)?
The GI50 was greater than 500 µM.

What about the TGI (COLO 205 colon) of the same molecule?
The TGI was greater than 500 µM.

And the GI50 (MDA-MB-435)?
The GI50 was 21.5 µM.

And the TGI (MDA-MB-435)?
Its TGI is 82.4 µM.

What about the GI50 (SK-MEL-2 melanoma) of the same molecule?
Its GI50 is 47.5 µM.

And the TGI (SK-MEL-2 melanoma)?
Its TGI is 115 µM.

And the GI50 (T-47D breast)?
Its GI50 is 71.7 µM.

And the TGI (T-47D breast)?
The TGI was 319 µM.

And the GI50 (MDA-MB-231 breast)?
The GI50 was 68.8 µM.

What about the TGI (MDA-MB-231 breast) of the same molecule?
Its TGI is 198 µM.

And the GI50 (HL-60(TB) leukemia)?
The GI50 was 15.9 µM.

What about the TGI (HL-60(TB) leukemia) of the same molecule?
Its TGI is 48.2 µM.

What about the GI50 (HS 578T breast) of the same molecule?
The GI50 was 96 µM.

What about the TGI (HS 578T breast) of the same molecule?
Its TGI is 383 µM.
